Measured values: patent US9796724B2, “Substituted pyrazolo[1,5-a]pyrimidine compounds as Trk kinase inhibitors” (Array BioPharma, Inc., priority 2009, dated 2017)

Key:
[1] = biological target: TrkA (histidine-tagged recombinant human TrkA, cytoplasmic domain) (Homo sapiens (Human), UniProt P04629); test: TrkA ELISA assay; type: biochemical; conditions: Table 1, 500 μM ATP, read-out: TrkA Enzyme IC50
Experimental: An enzyme-linked immunosorbant assay (ELISA) was used to assess TrkA kinase activity in the presence of inhibitors. Immulon 4HBX 384-well microtiter plates (Thermo part #8755) were coated with a 0.025 mg/mL solution of poly (Glu, Ala, Tyr; 6:3:1; Sigma P3899). […] The assay buffer consisted of 25 mM MOPS pH 7.5, 0.005% (v/v) Triton X-100 and 5 mM MgCl2. The reaction mixture was removed from the plate by washing with PBS containing 0.1% (v/v) Tween 20. The phosphorylated reaction product was detected using 0.2 μg/mL of a phosphotyrosine specific monoclonal antibody (clone PY20) conjugated to horseradish peroxidase in conjunction with the TMB Peroxidase Substrate System (KPL). After the addition of 1M phosphoric acid, the chromogenic substrate color intensity was quantitated via absorbance at 450 nm.

Human Jak2 kinase domain = Human Jak2 kinase domain (Homo sapiens (Human), UniProt O60674); test: Jak2 inhibition assay (Omnia kinase assay); type: biochemical; conditions: Table 1; >1000 nM when >50% inhibition not observed at 1000 nM; read-out: Jak2 Enzyme IC50
Sequence of Human Jak2 kinase domain (O60674 808-1132): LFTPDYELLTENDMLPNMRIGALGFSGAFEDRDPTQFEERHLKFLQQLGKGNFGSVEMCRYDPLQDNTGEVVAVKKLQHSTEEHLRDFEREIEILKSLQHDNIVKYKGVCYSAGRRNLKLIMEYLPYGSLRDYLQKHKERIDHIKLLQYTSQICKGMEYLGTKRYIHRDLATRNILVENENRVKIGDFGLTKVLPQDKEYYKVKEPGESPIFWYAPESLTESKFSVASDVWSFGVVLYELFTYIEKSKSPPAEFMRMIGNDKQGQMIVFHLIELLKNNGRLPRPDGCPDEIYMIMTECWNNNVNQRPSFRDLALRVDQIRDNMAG
Excerpt: The assays described in Examples C, D, E and F for the determination of JAK1, JAK2, JAK3 and Tyk2 kinase activity, respectively, utilized the Omnia® Kinase fluorescence peptide substrate-based technology (Invitrogen). The specific components of the assay mixture are described in Examples C, D and E. […] Two-μL aliquots of these were transferred to a fresh plate for a ten-fold intermediate dilution with assay buffer. […] Human Jak2 kinase domain comprising amino acids 808-1132 was purchased from Invitrogen Corporation, Carlsbad, Calif.

Sequence of TrkA (histidine-tagged recombinant human TrkA, cytoplasmic domain) (P04629 440-796): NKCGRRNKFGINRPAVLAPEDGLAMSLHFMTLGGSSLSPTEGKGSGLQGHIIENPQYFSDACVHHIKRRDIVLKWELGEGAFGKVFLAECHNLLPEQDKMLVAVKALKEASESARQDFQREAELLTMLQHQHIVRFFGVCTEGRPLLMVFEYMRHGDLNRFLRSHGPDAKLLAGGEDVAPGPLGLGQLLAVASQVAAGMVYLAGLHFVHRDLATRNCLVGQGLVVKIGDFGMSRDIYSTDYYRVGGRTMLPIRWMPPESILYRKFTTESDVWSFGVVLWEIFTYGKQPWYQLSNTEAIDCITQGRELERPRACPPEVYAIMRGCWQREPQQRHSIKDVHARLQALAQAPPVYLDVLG

SMILES | IC50 [1] [µM] | IC50 (Human Jak2 kinase domain) [µM]
O=C(NCCN1CCC(O)CC1)c1cnn2ccc(N3CCC[C@@H]3c3cc(F)ccc3F)nc12 [Example 170, 5-((R)-2-(2,5-difluorophenyl)pyrrolidin-1-yl)-N-(2-(4-hydroxypiperidin-1-yl)ethyl)pyrazolo[1,5-a]pyrimidine-3-carboxamide] | 0.0116 | –
C[C@@H](O)[C@H](CO)NC(=O)c1cnn2ccc(N3CCC[C@@H]3c3cc(F)ccc3F)nc12 [Example 174, 5-((R)-2-(2,5-difluorophenyl)pyrrolidin-1-yl)-N-((2S,3R)-1,3-dihydroxybutan-2-yl)pyrazolo[1,5-a]pyrimidine-3-carboxamide] | 0.0163 | > 1
C[C@H](O)[C@H](CO)NC(=O)c1cnn2ccc(N3CCC[C@@H]3c3cc(F)ccc3F)nc12 [Example 175, 5-((R)-2-(2,5-difluorophenyl)pyrrolidin-1-yl)-N-((2S,3S)-1,3-dihydroxybutan-2-yl)pyrazolo[1,5-a]pyrimidine-3-carboxamide] | 0.0122 | > 1
C[C@H](O)[C@@H](CO)NC(=O)c1cnn2ccc(N3CCC[C@@H]3c3cc(F)ccc3F)nc12 [Example 176, 5-((R)-2-(2,5-difluorophenyl)pyrrolidin-1-yl)-N-((2R,3S)-1,3-dihydroxybutan-2-yl)pyrazolo[1,5-a]pyrimidine-3-carboxamide] | 0.0272 | > 1
